Source: patent US20080051387A1, “TETRAHYDROPYRIDO[3,4-D]PYRIMIDINES AND RELATED ANALOGUES” (priority 2006, published 2008)

The molecules below were run against T1, chimeric human H3 receptor (Homo sapiens, UniProt Q9Y5N1) (assay: Chimeric human H3 receptor screening GTP binding assay (inhibition of histamine-stimulated GTP-gamma35S binding, Example 8)). Conditions: 1 h; assay of Example 8; symbol "!" in column headed Ki; read-out: percent inhibition of agonist-induced GTP-gammaS binding to H3.
T1 construct: rat Galpha-i2 (Gnai2, rat); made in house; host or cells: Sf9 insect cells (baculovirus); P2 membranes
T1 sequence (Q9Y5N1 with tags, fused parts or gaps): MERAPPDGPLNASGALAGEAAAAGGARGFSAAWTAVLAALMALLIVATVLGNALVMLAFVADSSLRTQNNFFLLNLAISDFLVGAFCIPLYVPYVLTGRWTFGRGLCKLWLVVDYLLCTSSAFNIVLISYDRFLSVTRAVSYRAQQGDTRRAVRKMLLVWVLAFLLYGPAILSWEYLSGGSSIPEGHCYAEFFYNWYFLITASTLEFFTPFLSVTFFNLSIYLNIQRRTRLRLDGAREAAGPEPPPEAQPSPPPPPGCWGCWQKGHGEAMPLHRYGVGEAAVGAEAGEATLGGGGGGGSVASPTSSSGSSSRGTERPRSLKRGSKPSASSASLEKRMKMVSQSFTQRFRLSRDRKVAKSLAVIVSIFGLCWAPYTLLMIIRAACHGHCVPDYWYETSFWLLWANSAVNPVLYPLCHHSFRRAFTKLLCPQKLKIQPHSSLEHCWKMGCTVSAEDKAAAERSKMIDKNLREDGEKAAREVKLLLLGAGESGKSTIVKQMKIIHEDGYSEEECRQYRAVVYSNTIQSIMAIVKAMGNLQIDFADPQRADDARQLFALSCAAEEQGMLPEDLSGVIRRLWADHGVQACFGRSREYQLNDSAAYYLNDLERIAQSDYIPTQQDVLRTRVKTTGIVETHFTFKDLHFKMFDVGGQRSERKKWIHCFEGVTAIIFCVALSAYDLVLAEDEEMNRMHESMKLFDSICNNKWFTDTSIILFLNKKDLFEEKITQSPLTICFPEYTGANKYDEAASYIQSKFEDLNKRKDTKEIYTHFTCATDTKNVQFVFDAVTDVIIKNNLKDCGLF
Type: biochemical
Summary of the method: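 Compound tested at 4 μM against 1 μM histamine stimulation; 125 pM GTP-gamma35S binding measured by filtration and scintillation after 60 min at room temperature. Membranes from Sf9 cells expressing chimeric human H3 plus G-protein subunits, in Tris pH 7.4/NaCl/MgCl2/GDP buffer; values are % inhibition after nonspecific subtraction.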

Row | SMILES | inhibition at 4 µM [%]
1 | CC(C)(Oc1ccc(Cl)cc1)C(=O)N1CCc2cnc(N3CCN(C4CCC4)CC3)nc2CC1 [Compound 337, 7-[2-(4-chlorophenoxy)-2-methylpropanoyl]-2-(4-cyclobutylpiperazin-1-yl)-6,7,8,9-tetrahydro-5H-pyrimido[4,5-d]azepine] | ≥ 90
2 | CC(Oc1ccc(Cl)cc1Cl)C(=O)N1CCc2cnc(N3CCN(C4CCC4)CC3)nc2CC1 (stereo not shown) [Compound 338, 2-(4-cyclobutylpiperazin-1-yl)-7-[2-(2,4-dichlorophenoxy)propanoyl]-6,7,8,9-tetrahydro-5H-pyrimido[4,5-d]azepine] | ≥ 90
3 | CC(Oc1ccccc1)C(=O)N1CCc2cnc(N3CCN(C4CCC4)CC3)nc2CC1 (stereo not shown) [Compound 339, 2-(4-cyclobutylpiperazin-1-yl)-7-(2-phenoxypropanoyl)-6,7,8,9-tetrahydro-5H-pyrimido[4,5-d]azepine] | ≥ 90
4 | CC(Oc1cccc(Cl)c1)C(=O)N1CCc2cnc(N3CCN(C4CCC4)CC3)nc2CC1 (stereo not shown) [Compound 340, 7-[2-(3-chlorophenoxy)propanoyl]-2-(4-cyclobutylpiperazin-1-yl)-6,7,8,9-tetrahydro-5H-pyrimido[4,5-d]azepine] | ≥ 90
5 | O=C(C1COc2ccccc2O1)N1CCc2cnc(N3CCN(C4CCC4)CC3)nc2CC1 (stereo not shown) [Compound 341, 2-(4-cyclobutylpiperazin-1-yl)-7-(2,3-dihydro-1,4-benzodioxin-2-ylcarbonyl)-6,7,8,9-tetrahydro-5H-pyrimido[4,5-d]azepine] | ≥ 90
6 | CC(CC(=O)N1CCc2cnc(N3CCN(C4CCC4)CC3)nc2CC1)Sc1ccc(Cl)cc1 (stereo not shown) [Compound 342, 7-{3-[(4-chlorophenyl)thio]butanoyl}-2-(4-cyclobutylpiperazin-1-yl)-6,7,8,9-tetrahydro-5H-pyrimido[4,5-d]azepine] | ≥ 90
7 | CC(Oc1ccc(OC(F)(F)F)cc1)C(=O)N1CCc2cnc(N3CCN(C4CCC4)CC3)nc2CC1 (stereo not shown) [Compound 343, 2-(4-cyclobutylpiperazin-1-yl)-7-{2-[4-(trifluoromethoxy)phenoxy]propanoyl}-6,7,8,9-tetrahydro-5H-pyrimido[4,5-d]azepine] | ≥ 90
8 | CC(Oc1ccccc1Cl)C(=O)N1CCc2cnc(N3CCN(C4CCC4)CC3)nc2CC1 (stereo not shown) [Compound 344, 7-[2-(2-chlorophenoxy)propanoyl]-2-(4-cyclobutylpiperazin-1-yl)-6,7,8,9-tetrahydro-5H-pyrimido[4,5-d]azepine] | ≥ 90
9 | CC(Oc1ccc(Cl)cc1)C(=O)N1CCc2cnc(N3CCN(C4CCC4)CC3)nc2CC1 (stereo not shown) [Compound 345, 7-[2-(4-chlorophenoxy)propanoyl]-2-(4-cyclobutylpiperazin-1-yl)-6,7,8,9-tetrahydro-5H-pyrimido[4,5-d]azepine] | ≥ 90
10 | Cc1ccccc1OC(C)C(=O)N1CCc2cnc(N3CCN(C4CCC4)CC3)nc2CC1 (stereo not shown) [Compound 346, 2-(4-cyclobutylpiperazin-1-yl)-7-[2-(2-methylphenoxy)propanoyl]-6,7,8,9-tetrahydro-5H-pyrimido[4,5-d]azepine] | ≥ 90
11 | Cc1cccc(OC(C)C(=O)N2CCc3cnc(N4CCN(C5CCC5)CC4)nc3CC2)c1C (stereo not shown) [Compound 347, 2-(4-cyclobutylpiperazin-1-yl)-7-[2-(2,3-dimethylphenoxy)propanoyl]-6,7,8,9-tetrahydro-5H-pyrimido[4,5-d]azepine] | ≥ 90
12 | CC(C)C(C(=O)N1CCc2cnc(N3CCN(C4CCC4)CC3)nc2CC1)c1ccccc1 (stereo not shown) [Compound 349, 2-(4-cyclobutylpiperazin-1-yl)-7-(3-methyl-2-phenylbutanoyl)-6,7,8,9-tetrahydro-5H-pyrimido[4,5-d]azepine] | ≥ 90
13 | CCC(CC)(C(=O)N1CCc2cnc(N3CCN(C4CCC4)CC3)nc2CC1)c1ccccc1 [Compound 350, 2-(4-cyclobutylpiperazin-1-yl)-7-(2-ethyl-2-phenylbutanoyl)-6,7,8,9-tetrahydro-5H-pyrimido[4,5-d]azepine] | ≥ 90
14 | Cc1ccccc1C(C(=O)N1CCc2cnc(N3CCN(C4CCC4)CC3)nc2CC1)C(C)C (stereo not shown) [Compound 351, 2-(4-cyclobutylpiperazin-1-yl)-7-[3-methyl-2-(2-methylphenyl)butanoyl]-6,7,8,9-tetrahydro-5H-pyrimido[4,5-d]azepine] | ≥ 90
15 | CCC(C(=O)N1CCc2cnc(N3CCN(C4CCC4)CC3)nc2CC1)c1ccc(OC)cc1 (stereo not shown) [Compound 352, 2-(4-cyclobutylpiperazin-1-yl)-7-[2-(4-methoxyphenyl)butanoyl]-6,7,8,9-tetrahydro-5H-pyrimido[4,5-d]azepine] | ≥ 90
16 | O=C(C(c1ccccc1)C1CCCC1)N1CCc2cnc(N3CCN(C4CCC4)CC3)nc2CC1 (stereo not shown) [Compound 353, 2-(4-cyclobutylpiperazin-1-yl)-7-[cyclopentyl(phenyl)acetyl]-6,7,8,9-tetrahydro-5H-pyrimido[4,5-d]azepine] | ≥ 90
17 | O=C(C(c1ccccc1)C1CCCCC1)N1CCc2cnc(N3CCN(C4CCC4)CC3)nc2CC1 (stereo not shown) [Compound 355, 2-(4-cyclobutylpiperazin-1-yl)-7-[cyclohexyl(phenyl)acetyl]-6,7,8,9-tetrahydro-5H-pyrimido[4,5-d]azepine] | ≥ 90
18 | O=C(C1c2ccccc2Oc2ccccc21)N1CCc2cnc(N3CCN(C4CCC4)CC3)nc2CC1 [Compound 358, 2-(4-cyclobutylpiperazin-1-yl)-7-(9H-xanthen-9-ylcarbonyl)-6,7,8,9-tetrahydro-5H-pyrimido[4,5-d]azepine] | ≥ 90
19 | Cc1cc(C)cc(C(=O)N2CCc3cnc(N4CCN(C5CCC5)CC4)nc3CC2)c1 [Compound 359, 2-(4-cyclobutylpiperazin-1-yl)-7-(3,5-dimethylbenzoyl)-6,7,8,9-tetrahydro-5H-pyrimido[4,5-d]azepine] | ≥ 90
20 | CCOc1cccc(C(=O)N2CCc3cnc(N4CCN(C5CCC5)CC4)nc3CC2)c1 [Compound 367, 2-(4-cyclobutylpiperazin-1-yl)-7-(3-ethoxybenzoyl)-6,7,8,9-tetrahydro-5H-pyrimido[4,5-d]azepine] | ≥ 90

Results, then the molecule that gave them:

Row | inhibition at 4 µM [%] | SMILES
21 | ≥ 90 | O=C(COc1cccc2ccccc12)N1CCc2cnc(N3CCN(C4CCC4)CC3)nc2CC1 [Compound 335, 2-(4-cyclobutylpiperazin-1-yl)-7-[(1-naphthyloxy)acetyl]-6,7,8,9-tetrahydro-5H-pyrimido[4,5-d]azepine]
22 | ≥ 90 | O=C(COc1ccc2ccccc2c1)N1CCc2cnc(N3CCN(C4CCC4)CC3)nc2CC1 [Compound 336, 2-(4-cyclobutylpiperazin-1-yl)-7-[(2-naphthyloxy)acetyl]-6,7,8,9-tetrahydro-5H-pyrimido[4,5-d]azepine]
23 | ≥ 90 | CCC(C(=O)N1CCc2cnc(N3CCN(C4CCC4)CC3)nc2CC1)c1ccccc1 (stereo not shown) [Compound 348, 2-(4-cyclobutylpiperazin-1-yl)-7-(2-phenylbutanoyl)-6,7,8,9-tetrahydro-5H-pyrimido[4,5-d]azepine]
24 | ≥ 90 | O=C(C(c1ccccc1)c1ccccc1)N1CCc2cnc(N3CCN(C4CCC4)CC3)nc2CC1 [Compound 354, 2-(4-cyclobutylpiperazin-1-yl)-7-(diphenylacetyl)-6,7,8,9-tetrahydro-5H-pyrimido[4,5-d]azepine]
25 | ≥ 90 | Cc1ccc(C(C(=O)N2CCc3cnc(N4CCN(C5CCC5)CC4)nc3CC2)c2ccccc2)cc1 (stereo not shown) [Compound 356, 2-(4-cyclobutylpiperazin-1-yl)-7-[(4-methylphenyl)(phenyl)acetyl]-6,7,8,9-tetrahydro-5H-pyrimido[4,5-d]azepine]
26 | ≥ 90 | CC(C(=O)N1CCc2cnc(N3CCN(C4CCC4)CC3)nc2CC1)(c1ccccc1)c1ccccc1 [Compound 357, 2-(4-cyclobutylpiperazin-1-yl)-7-(2,2-diphenylpropanoyl)-6,7,8,9-tetrahydro-5H-pyrimido[4,5-d]azepine]
27 | ≥ 90 | Cc1ccc(C(=O)N2CCc3cnc(N4CCN(C5CCC5)CC4)nc3CC2)cc1C [Compound 360, 2-(4-cyclobutylpiperazin-1-yl)-7-(3,4-dimethylbenzoyl)-6,7,8,9-tetrahydro-5H-pyrimido[4,5-d]azepine]
28 | ≥ 90 | O=C(c1ccc2ccccc2c1)N1CCc2cnc(N3CCN(C4CCC4)CC3)nc2CC1 [Compound 361, 2-(4-cyclobutylpiperazin-1-yl)-7-(2-naphthoyl)-6,7,8,9-tetrahydro-5H-pyrimido[4,5-d]azepine]
29 | ≥ 90 | CCCc1ccc(C(=O)N2CCc3cnc(N4CCN(C5CCC5)CC4)nc3CC2)cc1 [Compound 362, 2-(4-cyclobutylpiperazin-1-yl)-7-(4-propylbenzoyl)-6,7,8,9-tetrahydro-5H-pyrimido[4,5-d]azepine]
30 | ≥ 90 | CCCCc1ccc(C(=O)N2CCc3cnc(N4CCN(C5CCC5)CC4)nc3CC2)cc1 [Compound 363, 7-(4-butylbenzoyl)-2-(4-cyclobutylpiperazin-1-yl)-6,7,8,9-tetrahydro-5H-pyrimido[4,5-d]azepine]
31 | ≥ 90 | CC(C)(C)c1ccc(C(=O)N2CCc3cnc(N4CCN(C5CCC5)CC4)nc3CC2)cc1 [Compound 364, 7-(4-tert-butylbenzoyl)-2-(4-cyclobutylpiperazin-1-yl)-6,7,8,9-tetrahydro-5H-pyrimido[4,5-d]azepine]
32 | ≥ 90 | O=C(c1ccc(-c2ccccc2)cc1)N1CCc2cnc(N3CCN(C4CCC4)CC3)nc2CC1 [Compound 365]
33 | ≥ 90 | O=C(c1ccc(OC(F)F)cc1)N1CCc2cnc(N3CCN(C4CCC4)CC3)nc2CC1 [Compound 366, 2-(4-cyclobutylpiperazin-1-yl)-7-[4-(difluoromethoxy)benzoyl]-6,7,8,9-tetrahydro-5H-pyrimido[4,5-d]azepine]
34 | ≥ 90 | CCOc1ccc(C(=O)N2CCc3cnc(N4CCN(C5CCC5)CC4)nc3CC2)cc1 [Compound 368, 2-(4-cyclobutylpiperazin-1-yl)-7-(4-ethoxybenzoyl)-6,7,8,9-tetrahydro-5H-pyrimido[4,5-d]azepine]
